Source: PMC6325200, “Effects of Microplate Type and Broth Additives on Microdilution MIC Susceptibility Assays” (Antimicrobial Agents and Chemotherapy, 2018)

How the values were obtained:
Assay in all cases: microbe, parasite or virus in culture
[1] = test system: E. coli ATCC 25922; settings: n = 2
Description: A positive control of a row of just the bacteria and a negative control of only the medium were included for every plate tested.
The compounds along with standard antibiotics were serially diluted 2-fold across the 96-well plates. […] A sample of each culture was then diluted 40-fold in fresh MH broth (in presence and absence of Tween) and incubated at 37°C for 2 to 3 h.
For experiments in the presence of surfactant, 2% beractant (25 mg/ml) was added to the mid-log-phase cultures and mixed gently and added to all the 96-well plates. For experiments in the presence of serum, a mixture of 50% of human serum along with 50% MHB was prepared and used throughout the experiment.

[2] = test system: A. baumannii ATCC 19606; settings: Acinetobacter baumannii, n = 2
In short: (§1)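 Every plate included two controls, one row of bacteria alone and one of medium only. Test agents and standard antibiotics underwent twofold dilution series in 96-well format, and cultures were diluted 40-fold into MH broth in the presence or absence of Tween before 2–3 h at 37°C.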

[3] = test system: P. aeruginosa ATCC 10145; settings: Pseudomonas aeruginosa, n = 2
In short: as §1

[4] = test system: K. pneumoniae ATCC 13883; settings: Klebsiella pneumoniae, n = 2
In short: as §1

Measured: MIC

Cc1onc(-c2ccccc2)c1C(=O)N[C@@H]1C(=O)N2[C@@H]1SC(C)(C)[C@@H]2C(=O)O [Oxacillin, oxacillin]
> 64 µg/mL: [1]; Corning NBS plate, MHB +0.002% T80, no further additive | [1]; Corning NBS plate, MHB −T80, no additive | [1]; Corning PS plate, MHB +0.002% T80, no further additive | [1]; Corning PS plate, MHB −T80, no additive | [1]; Corning TC plate, MHB +0.002% T80, no further additive | [1]; Corning TC plate, MHB −T80, no additive | [1]; Escherichia coli, ATCC25922, 24 h, Corning NBS, MH + 2% LHB, 2% LS | [1]; Escherichia coli, ATCC25922, 24 h, Corning NBS, MH + 2% LHB, 50% HS | [1]; Escherichia coli, ATCC25922, 24 h, Corning NBS, MH + 2% LHB, no additive | [1]; Escherichia coli, ATCC25922, 24 h, Corning NBS, MH + T80, 2% LS | [1]; Escherichia coli, ATCC25922, 24 h, Corning NBS, MH + T80, 50% HS | [1]; Escherichia coli, ATCC25922, 24 h, Corning PS, MH + 2% LHB, 2% LS | [1]; Escherichia coli, ATCC25922, 24 h, Corning PS, MH + 2% LHB, 50% HS | [1]; Escherichia coli, ATCC25922, 24 h, Corning PS, MH + 2% LHB, no additive | [1]; Escherichia coli, ATCC25922, 24 h, Corning PS, MH + T80, 2% LS | [1]; Escherichia coli, ATCC25922, 24 h, Corning PS, MH + T80, 50% HS | [1]; Escherichia coli, ATCC25922, 24 h, Corning TC, MH + 2% LHB, 2% LS | [1]; Escherichia coli, ATCC25922, 24 h, Corning TC, MH + 2% LHB, 50% HS | [1]; Escherichia coli, ATCC25922, 24 h, Corning TC, MH + 2% LHB, no additive | [1]; Escherichia coli, ATCC25922, 24 h, Corning TC, MH + T80, 2% LS | [1]; Escherichia coli, ATCC25922, 24 h, Corning TC, MH + T80, 50% HS | [1]; Escherichia coli, ATCC25922, 24 h, Trek PS, MH + 2% LHB, 2% LS | [1]; Escherichia coli, ATCC25922, 24 h, Trek PS, MH + 2% LHB, 50% HS | [1]; Escherichia coli, ATCC25922, 24 h, Trek PS, MH + 2% LHB, no additive | [1]; Escherichia coli, ATCC25922, 24 h, Trek PS, MH + T80, 2% LS | [1]; Escherichia coli, ATCC25922, 24 h, Trek PS, MH + T80, 50% HS | [1]; Escherichia coli, ATCC25922, Corning NBS plate, MHB +0.002% T80, no further additive | [1]; Escherichia coli, ATCC25922, Corning NBS plate, MHB −T80, no additive | [1]; Escherichia coli, ATCC25922, Corning NBS, MH, 2% LS | [1]; Escherichia coli, ATCC25922, Corning NBS, MH, 50% HS | [1]; Escherichia coli, ATCC25922, Corning PS plate, MHB +0.002% T80, no further additive | [1]; Escherichia coli, ATCC25922, Corning PS plate, MHB −T80, no additive | [1]; Escherichia coli, ATCC25922, Corning PS, MH, 2% LS | [1]; Escherichia coli, ATCC25922, Corning PS, MH, 50% HS | [1]; Escherichia coli, ATCC25922, Corning TC plate, MHB +0.002% T80, no further additive | [1]; Escherichia coli, ATCC25922, Corning TC plate, MHB −T80, no additive | [1]; Escherichia coli, ATCC25922, Corning TC, MH, 2% LS | [1]; Escherichia coli, ATCC25922, Corning TC, MH, 50% HS | [1]; Escherichia coli, ATCC25922, Nunc PS plate, MHB +0.002% T80 | [1]; Escherichia coli, ATCC25922, Nunc PS plate, MHB −T80 | [1]; Escherichia coli, ATCC25922, Nunc U TC plate, MHB +0.002% T80 | [1]; Escherichia coli, ATCC25922, Nunc U TC plate, MHB −T80 | [1]; Escherichia coli, ATCC25922, Nunc flat TC plate, MHB +0.002% T80 | [1]; Escherichia coli, ATCC25922, Nunc flat TC plate, MHB −T80 | [1]; Escherichia coli, ATCC25922, Trek PS plate, MHB +0.002% T80, no further additive | [1]; Escherichia coli, ATCC25922, Trek PS plate, MHB −T80, no additive | [1]; Escherichia coli, ATCC25922, Trek PS, MH, 2% LS | [1]; Escherichia coli, ATCC25922, Trek PS, MH, 50% HS | [2]; ATCC19606, Corning NBS, MHB +T80 | [2]; ATCC19606, Corning NBS, MHB -T80 | [2]; ATCC19606, Corning PS, MHB +T80 | [2]; ATCC19606, Corning PS, MHB -T80 | [2]; ATCC19606, Corning TC, MHB +T80 | [2]; ATCC19606, Corning TC, MHB -T80 | [3]; ATCC10145, Corning NBS, MHB +T80 | [3]; ATCC10145, Corning NBS, MHB -T80 | [3]; ATCC10145, Corning PS, MHB +T80 | [3]; ATCC10145, Corning PS, MHB -T80 | [3]; ATCC10145, Corning TC, MHB +T80 | [3]; ATCC10145, Corning TC, MHB -T80 | [4]; ATCC13883, Corning NBS, MHB +T80 | [4]; ATCC13883, Corning NBS, MHB -T80 | [4]; ATCC13883, Corning PS, MHB +T80 | [4]; ATCC13883, Corning PS, MHB -T80 | [4]; ATCC13883, Corning TC, MHB +T80 | [4]; ATCC13883, Corning TC, MHB -T80
